Reference: BindingDB's records for doi:10.1002/cbic.201300187 (The Johns Hopkins University, 2013)

target: T1, 1-deoxy-D-xylulose-5-phosphate synthase (Escherichia coli (strain K12), UniProt P77488); test: DXP Synthase Inhibition Assay; details: pH 8; 37 °C
T1 sequence (P77488 whole entry): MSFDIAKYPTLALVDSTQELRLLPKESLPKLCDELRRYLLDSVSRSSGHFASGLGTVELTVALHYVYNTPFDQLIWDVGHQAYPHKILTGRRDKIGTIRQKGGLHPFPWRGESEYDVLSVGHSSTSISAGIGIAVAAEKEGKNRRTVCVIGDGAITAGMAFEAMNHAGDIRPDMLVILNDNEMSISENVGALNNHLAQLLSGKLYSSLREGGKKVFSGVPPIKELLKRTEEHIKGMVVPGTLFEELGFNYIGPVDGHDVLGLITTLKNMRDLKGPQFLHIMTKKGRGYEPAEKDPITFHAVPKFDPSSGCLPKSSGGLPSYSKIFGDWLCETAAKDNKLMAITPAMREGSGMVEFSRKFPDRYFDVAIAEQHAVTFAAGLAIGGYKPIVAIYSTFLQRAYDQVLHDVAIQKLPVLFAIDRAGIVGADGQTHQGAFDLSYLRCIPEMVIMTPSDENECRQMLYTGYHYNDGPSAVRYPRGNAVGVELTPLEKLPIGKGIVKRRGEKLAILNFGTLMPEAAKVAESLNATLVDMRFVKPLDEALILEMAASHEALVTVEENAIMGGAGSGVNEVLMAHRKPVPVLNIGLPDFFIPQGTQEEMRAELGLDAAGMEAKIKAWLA
Description: Reaction mixtures containing HEPES (100mM, pH 8.0, 2mM MgCl2, 5mM NaCl), ThDP (1mM), BSA (1mg/mL), DMSO (10%, v/v), ᴅ-GAP (30µM), pyruvate (80µM), and various concentrations of nitroso inhibitor were preincubated at 37°C for 5 min. Enzyme reactions were initiated by addition of DXP synthase (0.1µM). Aliquots (150µL) of the enzymatic mixture were removed between 0.5 and 3 min and quenched in ice-cold methanol (150µL).

Compound | IC50 [µM]
Cc1nn(C(C)C)c(C)c1N=O [1‐isopropyl‐3,5‐dimethyl‐4‐nitrosopyrazole (Substrate 9)] | > 2000
O=Nc1ccccc1 [NOB] | 208
CN(C)c1ccc(N=O)cc1 [NDMA (Substrate 4)] | 844
COc1ccc2ccc(O)c(N=O)c2c1 [7‐methoxy‐1‐nitrosonaphthalen‐2‐ol (Substrate 8)] | > 2000
